Assay results taken from ChEMBL document CHEMBL1157662, “Antimalarial and antileishmanial activities of histone deacetylase inhibitors with triazole-linked cap group” (Bioorg Med Chem, 2010).
Values after ≈ are worked out from the molar mass of the structure shown. Active and inactive are the calls of the source. The rule behind the calls is not given here.

Assays:
Leishmania donovani [1] = assay: Antileishmanial activity against Leishmania donovani promastigotes after 72 hrs by alamar blue assay; format: functional, organism-based
Plasmodium falciparum [2] = assay: microbe, parasite or virus in culture; format: functional, organism-based, W2, Vero; conditions: Plasmodium falciparum, W2, Vero, 72 h; read-out: IC50
Description: Antimalarial activity against chloroquine-resistant Plasmodium falciparum W2 infected in African green monkey (Cercopithecus aethiops) Vero cells assessed as parasite LDH activity after 72 hrs by Malstat reagent method

Vero = assay: Cytotoxicity against african green monkey Vero cells after 1 to 2 days by neutral red assay; format: ADME, cell-based, Chlorocebus sabaeus
[3] = Selectivity index, ratio of IC50 for african green monkey (Cercopithecus aethiops) Vero cells to IC50 for chloroquine-sensitive Plasmodium falciparum D6
[4] = Selectivity index, ratio of IC50 for african green monkey (Cercopithecus aethiops) Vero cells to IC50 for chloroquine-resistant Plasmodium falciparum W2
Plasmodium falciparum [5] = assay: microbe, parasite or virus in culture; conditions: D6, Vero, 72 h
Description: Antimalarial activity against chloroquine-sensitive Plasmodium falciparum D6 infected in African green monkey (Cercopithecus aethiops) Vero cells assessed as parasite LDH activity after 72 hrs by Malstat reagent method

Leishmania donovani [6] = system: Leishmania donovani
Histone deacetylase = assay: Inhibition of HDAC in human HeLa cell nuclear extracts after 15 mins by fluorescence assay; format: cell-based
Leishmania donovani [7] = assay: Ratio of suberoylanilide hydroxamic acid IC50 to compound IC50 for Leishmania donovani promastigotes; format: functional
Leishmania donovani [8] = assay: Ratio of suberoylanilide hydroxamic acid IC50 to compound IC50 for Leishmania donovani promastigotes
[9] = Leishmania donovani, 72 h, read-out: IC50
[10] = Chlorocebus sabaeus, Vero, read-out: IC50

| Structure (SMILES) | IC90 (Leishmania donovani [1]; Leishmania donovani, 72 h) [µg/mL] | IC50 (Leishmania donovani [1]; [9]) [µg/mL] | IC50 (Plasmodium falciparum [2]) [µg/mL] | IC50 (Vero; [10]) [µg/mL] | selectivity ratio [3] | selectivity ratio [4] | IC50 (Plasmodium falciparum [5]) [µg/mL] | IC50 (Leishmania donovani [1]) | IC50 (Vero; vero) | IC90 (Leishmania donovani [6]) | IC50 (Histone deacetylase) [nM] | Ratio (Leishmania donovani [7]) | IC50 ratio (Leishmania donovani [8]) |
| --- | --- | --- | --- | --- | --- | --- | --- | --- | --- | --- | --- | --- | --- |
| O=C(CCCCCn1cc(-c2ccccn2)nn1)NO | > 40 | 20.5 (≈ 74.5 µM) | 0.625 (≈ 2.27 µM) | 2.9 (≈ 10.5 µM) | 2.9 | 4.6 | 0.985 (≈ 3.58 µM) |  |  |  |  |  |  |
| O=C(CCCn1cc(-c2ccccc2)nn1)NO |  |  | 3.5 (≈ 14.2 µM) |  | > 1.7 | > 1.4 | 2.85 (≈ 11.6 µM) | Not Active | Non-toxic | inactive |  |  |  |
| O=C(CCCCCCC(=O)Nc1ccccc1)NO [VORINOSTAT] | 57.9 (≈ 219 µM) |  |  |  |  |  |  |  |  |  |  |  |  |
| O=C(CCCCCCCn1cc(-c2cccnc2)nn1)NO | > 40 | 19.8 (≈ 65.1 µM) | 1.69 (≈ 5.56 µM) |  | > 3.2 | > 2.8 | 1.49 (≈ 4.93 µM) |  | Non-toxic |  | 425.8 |  |  |
| C[C@@H]1[C@H](O)[C@@H](C)/C=C/C=C/C=C/C=C/C=C/C=C/C=C/[C@H](O[C@@H]2O[C@H](C)[C@@H](O)[C@H](N)[C@@H]2O)C[C@@H]2O[C@](O)(C[C@@H](O)C[C@@H](O)[C@H](O)CC[C@@H](O)C[C@@H](O)CC(=O)O[C@H]1C)C[C@H](O)[C@H]2C(=O)O [AMPHOTERICIN B] | 0.31 (≈ 0.335 µM) | 0.14 (≈ 0.152 µM) |  |  |  |  |  |  |  |  |  |  |  |
| CN(C)c1ccc(-c2cn(CCCCCC(=O)NO)nn2)cc1 | > 40 | 15.5 (≈ 48.8 µM) | 0.0385 (≈ 0.121 µM) | 3.4 (≈ 10.7 µM) | 50 | 88.3 | 0.068 (≈ 0.214 µM) |  |  |  |  |  |  |
| CC(/C=C/C(=O)NO)=C\[C@@H](C)C(=O)c1ccc(N(C)C)cc1 [TRICHOSTATIN] | 20.5 (≈ 67.8 µM) | 1.37 (≈ 4.53 µM) | 0.0495 (≈ 0.164 µM) | 0.095 (≈ 0.314 µM) |  |  | 0.0412 (≈ 0.136 µM) |  |  |  |  |  |  |
| O=C(CCCCCCCCn1cc(-c2cccc(-c3ccccc3)c2)nn1)NO | 40 (≈ 102 µM) | 20 (≈ 51 µM) | 3.2 (≈ 8.15 µM) |  | > 1.4 | > 1.5 | 3.35 (≈ 8.53 µM) |  | Non-toxic |  | 147.7 |  |  |
| O=C(CCCCCCn1cc(-c2cccnc2)nn1)NO | 40 (≈ 138 µM) | 15.5 (≈ 53.6 µM) | 0.081 (≈ 0.28 µM) | 3.78 (≈ 13.1 µM) | 50.1 | 46.7 | 0.0755 (≈ 0.261 µM) |  |  |  | 365.8 |  |  |
| COc1ccc(-c2cn(CCCCCC(=O)NO)nn2)cc1 | > 40 | 18.5 (≈ 60.8 µM) | 0.09 (≈ 0.296 µM) | 2.35 (≈ 7.72 µM) | 18.1 | 26.1 | 0.13 (≈ 0.427 µM) |  |  |  |  |  |  |
| C[C@@H]1CC[C@H]2[C@@H](C)C(=O)O[C@@H]3O[C@@]4(C)CC[C@@H]1[C@]32OO4 [ARTEMISININ] |  |  | 0.006 (≈ 0.0213 µM) |  |  |  | 0.004 (≈ 0.0142 µM) |  |  |  |  |  |  |
| N=C(N)c1ccc(OCCCCCOc2ccc(C(=N)N)cc2)cc1 [PENTAMIDINE] | 1.8 (≈ 5.29 µM) |  |  |  |  |  |  |  |  |  |  |  |  |
| Cc1ccc(-c2cn(CCCCCC(=O)NO)nn2)cc1 | > 40 | 21.5 (≈ 74.6 µM) | 0.14 (≈ 0.486 µM) | 3.85 (≈ 13.4 µM) | 29.6 | 27.5 | 0.13 (≈ 0.451 µM) |  |  |  |  |  |  |
| CN(C)c1ccc(-c2cn(CCCCCCCCC(=O)NO)nn2)cc1 | > 40 | 20.8 (≈ 57.7 µM) | 1.65 (≈ 4.59 µM) |  | > 2.6 | > 2.9 | 1.8 (≈ 5.01 µM) |  | Non-toxic |  | 596.6 |  |  |
| Cc1ccccc1-c1cn(CCCCCC(=O)NO)nn1 | > 40 | 23 (≈ 79.8 µM) | 1.95 (≈ 6.76 µM) | 3.3 (≈ 11.4 µM) | 2.6 | 1.7 | 1.25 (≈ 4.33 µM) |  |  |  |  |  |  |
| O=C(CCCCCCn1cc(-c2ccccc2)nn1)NO | 40 (≈ 139 µM) | 4.55 (≈ 15.8 µM) | 0.0245 (≈ 0.085 µM) | 0.43 (≈ 1.49 µM) | 11.3 | 17.6 | 0.038 (≈ 0.132 µM) |  |  |  |  | 2 | 2 |
| COc1cccc(OC)c1-c1cn(CCCCCC(=O)NO)nn1 | > 40 | 40 (≈ 120 µM) | 2.6 (≈ 7.78 µM) |  | > 2.4 | > 1.8 | 2 (≈ 5.98 µM) |  | Non-toxic |  |  |  |  |
| O=C(CCCCCCCn1cc(-c2ccccc2)nn1)NO | > 40 | 17.8 (≈ 58.7 µM) | 0.695 (≈ 2.3 µM) |  | > 7.4 | > 6.8 | 0.645 (≈ 2.13 µM) |  | Non-toxic |  | 363.6 |  |  |
| O=C(CCCCCCCn1cc(-c2cccc(-c3ccccc3)c2)nn1)NO | 40 (≈ 106 µM) | 20.2 (≈ 53.5 µM) | 0.65 (≈ 1.72 µM) |  | > 5.6 | > 7.3 | 0.84 (≈ 2.22 µM) |  | Non-toxic |  | 108.9 |  |  |
